Results reported in patent publication US20050232911A1, “Prevention and treatment of metabolic abnormalities associated with excess intramyocellular lipid” (priority 2004, published 2005).

Key:
[1] = tested on: whole animal models; settings: cited from earlier work
[2] = carnitine treatment; cited from earlier work
[3] = tested on: obese Zucker rats; test: Intramyocellular lipid content (oil red O staining of adductor magnus muscle) after chronic levocarnitine; assay type: in vivo, rat; settings: obese Zucker rats with metabolic syndrome; chronic administration, 100 mg/kg bodyweight daily in drinking water or food
Method: Forty-five male obese Zucker rats are obtained at 5 weeks of age (Charles is River) and randomized into three groups of 15 each. Namely, the forty-five male obese Zucker rats are randomized into Control Group A, Control Group B, and L-Carn Group, which each consists of 15 rats. Control Group A and Control Group B receive normal rat chow throughout the study. The 15 Zucker rats in L-Carn Group receive 100 mg/kg bodyweight (BWt) of levocarnitine, daily, in their drinking water or mixed with their food. […] After determining insulin sensitivity, the adductor magnus muscle of the left hind leg is isolated and the anterior and posterior ends tied with 3-O silk and cut outside the ties. The muscle is placed across a wooden stick, slightly wider than the muscle section is long, and tied in place to preserve its normal amount of stretch, then immediately immersed in isopentane cooled in liquid nitrogen. […] The lipid content of the sections is determined by using histochemical staining. One such suitable histochemical staining process includes using lipid-soluble dye to dye respective sections of tissue which are then observed and/or other wise analyzed. […] Ones of the three muscle fiber types are examined and lipid concentrations are determined respectively, pursuant to techniques and methods well known to those skilled in the art. […]

[4] = tested on: Type II Diabetics; settings: acute administration; cited from earlier work
[5] = tested on: obese Zucker rats; test: Insulin sensitivity by euglycemic-hyperinsulinemic clamp technique; assay type: in vivo, rat; settings: chronic administration
Method: Forty-five male obese Zucker rats are obtained at 5 weeks of age (Charles is River) and randomized into three groups of 15 each. Namely, the forty-five male obese Zucker rats are randomized into Control Group A, Control Group B, and L-Carn Group, which each consists of 15 rats. Control Group A and Control Group B receive normal rat chow throughout the study. The 15 Zucker rats in L-Carn Group receive 100 mg/kg bodyweight (BWt) of levocarnitine, daily, in their drinking water or mixed with their food. At 6 weeks of age, all groups are placed in metabolic cages for 24-hours to determine baseline protein and creatinine excretion rates, whereby proteinuria can be determined. […] At 6 weeks of age, the Zucker rats of Control Group A are anesthetized with sodium pentobarbital (50-60 mg/kg BWt intraperitoneally) and insulin sensitivity is determined using the euglycemic-hyperinsulinemic clamp technique, explained elsewhere herein. […] Blood glucose is determined every 15 minutes over a 120 minute baseline period. […] Blood glucose is analyzed every 5 minutes from a catheter in the femoral artery using a glucometer (Freestyle®, test volume required=0.3 μL) and the rate of D-glucose infused is adjusted to maintain plasma glucose at ˜5 mol/L. Whole body insulin sensitivity is calculated at the mean glucose infusion rate during the last 60 minutes of the euglycemic-hyperinsulinemic clamp study. […]

[6] = tested on: obese Zucker rats; test: Renal histology / kidney injury; assay type: in vivo, rat; settings: chronic administration, secondary benefit
Method: Forty-five male obese Zucker rats are obtained at 5 weeks of age (Charles is River) and randomized into three groups of 15 each. Namely, the forty-five male obese Zucker rats are randomized into Control Group A, Control Group B, and L-Carn Group, which each consists of 15 rats. Control Group A and Control Group B receive normal rat chow throughout the study. The 15 Zucker rats in L-Carn Group receive 100 mg/kg bodyweight (BWt) of levocarnitine, daily, in their drinking water or mixed with their food. At 6 weeks of age, all groups are placed in metabolic cages for 24-hours to determine baseline protein and creatinine excretion rates, whereby proteinuria can be determined. Systolic blood pressure measurements are obtained by tailcuff plethysmography and a sample of blood is obtained from the tail for determination of fasting plasma creatinine, insulin, blood glucose, triglycerides, and cholesterol. These measurements are subsequently repeated at 12, 18, and 24 weeks of age. […]
As one example, the PAS stained kidney sections are e.g. observed, examined, studied, and/or analyzed with light microscopy or other suitable means, while considering suitable observational criteria which includes, but is not limited to, a suitable glomerular sclerosis index, a suitable tubulointerstitial index, a suitable mesangial matrix index, and/or others. […]

[7] = tested on: canine cardiac tissue; settings: cited from earlier work
[8] = cited from earlier work
[9] = tested on: obese Zucker rat; settings: treated rats; cited from earlier work

Compound: CCOC(=O)[C@@]1(CCCCCCOc2ccc(Cl)cc2)CO1 [Etomoxir]
- intramyocellular lipid [1]: rise in intramyocellular lipid
- whole body insulin resistance [1]: increasing degrees of whole body insulin resistance

Compound: C[N+](C)(C)CC(O)CC(=O)[O-] (centres unmarked) [levocarnitine, 3-hydroxy-4-N trimethylammonium butyrate]
- urinary excretion of long chain carnitine esters [2]: increased urinary excretion of long chain carnitine esters
- intramyocellular lipid concentration [3]: decreases the intramyocellular lipid concentration
- glucose storage and oxidation [4]: both glucose storage and oxidation
- whole body glucose uptake [4]: significantly increased whole body glucose uptake
- insulin sensitivity ([5]; obese Zucker rats with metabolic syndrome, 100 mg/kg bodyweight daily): improves insulin sensitivity
- systemic insulin concentrations ([5]; obese Zucker rats): lower systemic insulin concentrations
- kidney injury [6]: reduction of kidney injury
- elution of long chain acyl CoA esters [7]: ability of levocarnitine to elute long chain acyl CoA esters has been demonstrated

Compound: CN(CCOc1ccc(CC2SC(=O)NC2=O)cc1)c1ccccn1 (centres unmarked) [roziglitazone]
- side effects ([8]; in vivo): weight gain
- concentration of IMCL [9]: reduce the concentration of IMCL
- insulin sensitivity [9]: marked improvement in insulin sensitivity

Compound: Cc1c(C)c2c(c(C)c1O)CCC(C)(COc1ccc(CC3SC(=O)NC3=O)cc1)O2 (centres unmarked) [troglitazone]
- hepatotoxicity ([8]; removed from the market): excessive hepatotoxicity
